Broadly, the IC50 is the concentration needed to halve the response being measured. The low end stands for greater potency in that assay, the high end for weaker potency in that assay.

Where a SMILES comes first, the peptide text is derived from it.

The target of the first test is T1, porcine plasma angiotensin-converting enzyme (Sus scrofa, UniProt F1RRW5).
T1 construct: procine plasma angiotensin-converting enzyme; from tissue; host or cells: porcine plasma
T1 sequence (F1RRW5 34-1309): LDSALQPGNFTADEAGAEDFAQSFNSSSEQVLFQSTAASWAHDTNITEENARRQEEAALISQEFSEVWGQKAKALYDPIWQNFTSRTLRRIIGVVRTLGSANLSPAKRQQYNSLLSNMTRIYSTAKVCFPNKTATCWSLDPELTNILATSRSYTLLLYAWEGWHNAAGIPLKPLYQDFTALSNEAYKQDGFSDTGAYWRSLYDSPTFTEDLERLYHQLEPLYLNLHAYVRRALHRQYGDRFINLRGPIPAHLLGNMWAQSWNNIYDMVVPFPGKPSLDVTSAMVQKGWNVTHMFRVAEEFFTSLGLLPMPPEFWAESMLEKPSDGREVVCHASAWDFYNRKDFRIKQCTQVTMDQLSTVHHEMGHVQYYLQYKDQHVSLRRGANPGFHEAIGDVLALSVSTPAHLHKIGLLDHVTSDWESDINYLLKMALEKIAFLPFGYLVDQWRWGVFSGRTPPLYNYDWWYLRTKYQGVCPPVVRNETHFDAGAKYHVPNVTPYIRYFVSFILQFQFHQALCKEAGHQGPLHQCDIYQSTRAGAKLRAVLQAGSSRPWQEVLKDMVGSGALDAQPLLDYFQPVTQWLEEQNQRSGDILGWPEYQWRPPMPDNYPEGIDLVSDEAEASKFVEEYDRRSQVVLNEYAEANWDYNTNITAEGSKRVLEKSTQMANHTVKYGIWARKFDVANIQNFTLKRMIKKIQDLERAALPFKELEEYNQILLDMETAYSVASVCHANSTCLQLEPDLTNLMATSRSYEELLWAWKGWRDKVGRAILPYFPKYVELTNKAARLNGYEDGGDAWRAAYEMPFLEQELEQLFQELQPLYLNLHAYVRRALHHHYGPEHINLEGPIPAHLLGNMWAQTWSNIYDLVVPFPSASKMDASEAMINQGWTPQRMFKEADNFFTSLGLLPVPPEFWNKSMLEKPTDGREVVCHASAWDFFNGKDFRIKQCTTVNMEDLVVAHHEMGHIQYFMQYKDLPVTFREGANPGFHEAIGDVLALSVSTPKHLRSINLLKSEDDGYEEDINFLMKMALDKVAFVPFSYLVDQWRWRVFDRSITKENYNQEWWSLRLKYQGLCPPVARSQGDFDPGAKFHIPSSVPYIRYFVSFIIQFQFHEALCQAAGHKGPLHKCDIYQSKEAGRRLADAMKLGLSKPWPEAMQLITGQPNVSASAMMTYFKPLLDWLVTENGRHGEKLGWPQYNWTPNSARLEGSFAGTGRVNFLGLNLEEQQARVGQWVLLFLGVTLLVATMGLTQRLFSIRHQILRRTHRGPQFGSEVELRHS
As to the kind of experiment: Angiotensin Converting Enzyme Inhibition Assay. The following applies: compared with Captopril / other examples, Table II. Type of test: biochemical. The protocol: Said assay is described in the literature as follows: B. S. Tsai, M. J. Peach, M. C.
The Angiotensin Converting Enzyme Inhibition Assay represents a test procedure in which various compounds are tested for their ability to inhibit the conversion of the decapeptide angiotensin I or the tripeptide hippuryl-histidyl-leucine to its cleavage product, the dipeptide histidyl-leucine. This dipeptide is detected via its fluorescent condensation product with o-phthaladehyde.
For testing the effect of inhibitors on procine plasma angiotensin-converting enzyme, two assays were run in parallel. One contained the substrate (1-2 mM), enzyme (1 mg) and various concentrations (1 nM-10 mM) of an inhibitor, the other contained only the substrate and enzyme. The assays were conducted in sodium phosphate buffer, pH 7.6, under the conditions described in the article by Tsai, et al., supra.
On to `CC(CC(=O)C(Cc1ccccc1)NC(=O)c1ccccc1)C(=O)N1CCC[C@H]1C(=O)O` (stereo partly drawn) [Example XIII, 5-Benzamido-4-oxo-2-methyl-6-phenylhexanoyl-L-proline], for which the “effectiveness in angiotensin converting enzyme inhibition assay (in words)” value is “most effective compound”.

The same test, now with this note: sodium phosphate buffer, pH 7.6; substrate 1-2 mM; inhibitor 1 nM-10 mM.
`O=C(NC(Cc1ccccc1)C(=O)CCC(=O)N1CCC[C@H]1C(=O)O)OCc1ccccc1` (stereo partly drawn) [Example III, 5-Benzyloxycarbonylamino-4-oxo-6-phenylhexanoyl-L-proline] registered an IC50 of 240 nM.
Same read-out and setting: for `O=C(NC(Cc1ccc(OCc2ccccc2)cc1)C(=O)CCC(=O)N1CCC[C@H]1C(=O)O)c1ccccc1` (stereo partly drawn) [Example IX, 5-Benzamido-4-oxo-6-p-benzyloxyphenylhexanoyl-L-proline] the value was 10 nM; for `O=C(NC(Cc1ccccc1)C(=O)CCC(=O)N1CCC[C@H]1C(=O)O)c1ccco1` (stereo partly drawn) [Example V, 5-(2-Furoylamino)-4-oxo-6-phenylhexanoyl-L-proline], 1.4 nM.
On the same count and under the same terms, for `O=C(NC(Cc1ccc(O)cc1)C(=O)CCC(=O)N1CCC[C@H]1C(=O)O)c1ccccc1` (stereo partly drawn) [Example X, 5-Benzamido-4-oxo-6-p-hydroxyphenylhexanoyl-L-proline] the value was 4.7 nM; for `O=C(NC(Cc1cccnc1)C(=O)CCC(=O)N1CCC[C@H]1C(=O)O)c1ccccc1` (stereo partly drawn) [Example XI, 5-Benzamido-4-oxo-6-(3-pyridyl)hexanoyl-L-proline], 5.7 nM; for `CCCCCC(=O)NC(Cc1ccccc1)C(=O)CCC(=O)N1CCC[C@H]1C(=O)O` (stereo partly drawn) [Example XIX, 5-n-Hexanoylamino-4-oxo-6-phenylhexanoyl-L-proline], 47 nM.
`CCCCOC(=O)NC(Cc1ccccc1)C(=O)CCC(=O)N1CCC[C@H]1C(=O)O` (stereo partly drawn) [Example XV, 5-n-Butyloxycarbonylamino-4-oxo-6-phenylhexanoyl-L-proline] returned an IC50 of 210 nM.
Still for that read-out and setting: for `CCCCOC(=O)NC(Cc1ccccc1)C(=O)CC(C)C(=O)N1CCC[C@H]1C(=O)O` (stereo partly drawn) [Example XVII, 5-n-Butyloxycarbonylamino-4-oxo-2-methyl-6-phenylhexanoyl-L-proline] the value was 33 nM; for `O=C(NC(Cc1ccccc1)C(=O)CCC(=O)N1CCC[C@H]1C(=O)O)c1ccncc1` (stereo partly drawn) [IV, 5-(4-Pyridyl)carbonylamino-4-oxo-6-phenylhexanoyl-L-proline], 20 nM; for `O=C(CCC(=O)N1CCC[C@H]1C(=O)O)C(Cc1ccccc1)NC(=O)C1CCCO1` (stereo partly drawn) [VI, 5-(2-Tetrahydrofuroylamino)-4-oxo-6-phenylhexanoyl-L-proline], 20 nM.
Compound `Cc1ccccc1C(=O)NC(Cc1ccccc1)C(=O)CCC(=O)N1CCC[C@H]1C(=O)O` (stereo partly drawn) [VII, 5-O-Toluoylamino-4-oxo-6-phenylhexanoyl-L-proline] had an IC50 of 46 nM.
Same read-out and setting: for `COc1ccc(CC(NC(=O)c2ccccc2)C(=O)CCC(=O)N2CCC[C@H]2C(=O)O)cc1OC` (stereo partly drawn) [VIII, 5-Benzamido-4-oxo-6-(3,4-dimethoxyphenyl)hexanoyl-L-proline] the value was 1.4 nM; for `CC(C)C(CC(=O)C(Cc1ccccc1)NC(=O)c1ccccc1)C(=O)N1CCC[C@H]1C(=O)O` (stereo partly drawn) [XIV, 5-Benzamido-4-oxo-2-isopropyl-6-phenylhexanoyl-L-proline], 230 nM; for `CC(=O)NC(Cc1ccccc1)C(=O)CCC(=O)N1CCC[C@H]1C(=O)O` (stereo partly drawn) [XVIII, 5-Acetylamino-4-oxo-6-phenylhexanoyl-L-proline], 330 nM.
`CCCCCCCC(=O)NC(Cc1ccccc1)C(=O)CCC(=O)N1CCC[C@H]1C(=O)O` (stereo partly drawn) [XX, 5-n-Octanoylamino-4-oxo-6-phenylhexanoyl-L-proline] came in with an IC50 of 650 nM. This IC50 is about 2-fold higher than that of the compound before.
On the same count and under the same terms, the value for `CCCCCCCCCC(=O)NC(Cc1ccccc1)C(=O)CCC(=O)N1CCC[C@H]1C(=O)O` (stereo partly drawn) [XXI, 5-n-Decanoylamino-4-oxo-6-phenylhexanoyl-L-proline] was 6500 nM.

Another test concerns angiotensin converting enzyme.
Test: not given
The conditions noted are these: literature; cited from earlier work.
On to `C[C@H](NC(=O)[C@@H](N)Cc1ccccc1)C(=O)N1CCC[C@H]1C(=O)O` [phenylalanyl-alanyl-proline] (H-Phe-Ala-Pro-OH), for which the “inhibition of the converting enzyme (in words)” value is reported as “substantial degree of activity”.

The record behind these values is patent US4329473A, “Oxoalkanoic acid derivatives as inhibitors of angiotensin converting enzyme” (priority 1980, dated 1982).
